The results in this text go back to patent US20060079453A1, “Hla binding peptides and their uses” (priority 2002, published 2006).

Test [1] deals with HLA-A*0101 (Homo sapiens, UniProt P04439, A114D/A174V/A182V/D101N/D185E/E176A/E190D/L180R/Q94H/R68K/S129P/T187R/V100A/V91M/W191G). Briefly: biochemical. In kind it is binding.
Test [2] addresses HLA-A*3002 (Homo sapiens, UniProt P04439, D101N/D140H/D185E/E176R/F33S/G80R/H175R/K168Q/Q94H/R138E/R41S/V100E). Briefly: biochemical. In kind it is binding.
Test [3] concerns the target HLA-B*4002 (Homo sapiens, UniProt P01889, A65T/A93T/A95T/D138N/D201E/D98Y/E176V/E204Q/E69K/K202T/N87E/Q56L/Q94N/R180L/S48T/Y33H/Y91S). Briefly: biochemical. The format is binding.
Test [4] has as its target HLA-B*4403 (Homo sapiens, UniProt P01889, A223V/A65T/A93T/A95T/D201E/D98Y/E176V/E187L/E204Q/E69K/G107R/H137Y/K202T/L105A/L119I/N104T/N87E/Q56L/Q94N/R106L/R155S/R180L/S101N/S121R/S35A/S48T/T118I/V36M/W191S/Y140D/Y91S). Briefly: biochemical. The format is binding.
The target in test [5] is HLA-B*4501 (Homo sapiens, UniProt P01889, A329T/A65T/A93T/A95T/C349S/D138N/D201E/D98Y/E176V/E187L/E204Q/E69K/H137Y/K202T/L119W/N87E/Q56L/Q94N/R155S/R180D/S121R/S35A/S48T/V127L/V306I/V36M/W191S/Y140L/Y33H/Y91S). Briefly: biochemical. The format is binding.
The target of test [6] is HLA-B*4402 (Homo sapiens, UniProt P01889, A223V/A65T/A93T/A95T/D201E/D98Y/E176V/E187L/E204Q/E69K/G107R/H137Y/K202T/L105A/L119I/N104T/N87E/Q56L/Q94N/R106L/R155S/R180D/S101N/S121R/S35A/S48T/T118I/V36M/W191S/Y140D/Y91S). Put plainly: biochemical. In kind it is binding.
The target in test [7] is HLA-B*1801 (Homo sapiens, UniProt P01889, A329T/A93T/A95T/C349S/D201E/D54G/D98Y/E176V/E187T/E204Q/E69T/K202T/Q94N/R155S/R180L/S121R/V306I/Y140S/Y195H/Y33H/Y91S). Put plainly: biochemical. In kind it is binding.
The target in test [8] is HLA-B*4001 (Homo sapiens, UniProt P01889, A65T/A93T/A95T/D138N/D98Y/E176V/E69K/N87E/Q56L/Q94N/R180L/S121R/S35A/S48T/T167S/V36M/W171L/Y33H/Y91S). Put plainly: biochemical. The format is binding.
Test [9] addresses HLA-A*2902 (Homo sapiens, UniProt P04439, A270S/D101N/D185E/E176V/E277Q/E87Q/F33T/G231S/H175R/I121M/I218V/I322F/K168Q/L300P/L318F/M331R/P208A/P217A/Q86L/T323A/T345S/V100A/V358M). Briefly: MHC molecular binding / Capture assay, IC50: A*2902.
The mark [10] stands for this setting: Binding affinity to A*0101 (expressed as an IC50).
Where [11] appears, read: read-out: Binding affinity to A*0101 (expressed as an IC50).

Where “and” joins values, the source holds several entries; their conditions need not be identical. Equal values may be shown once. Read-outs that look alike come from different tables or passages of the source. No end group written: not given here.

On to AADAAAAKY, for which, in test [1] (setting [10]), the IC50 was found to be 20 nM.

As for HTDTPTLHEY, the IC50 was 54 nM in [2]; 20 nM and 30 nM in [1] (setting [10]).

Consider LDPYARVAI, for which the IC50 in [3] was 372 nM; in [4], more than 39800 nM; in test [5] it was more than 49000 nM; in test [6], more than 41600 nM; in test [7] it was more than 24400 nM; in [8], more than 88900 nM.

Turning to YSDISEYRHY, the figures for the IC50 in [9] and in test [1] (setting [10]) were 1350 nM and 3.8 nM, respectively.

For the compound FENLWVTVY, the IC50 in test [3] came to 1340 nM; in test [4], 1310 nM; in test [5], 21400 nM; in test [6] it was 4180 nM; in [7] it was 59 nM; in [8], 943 nM.

Turning to SYQHFRIKLLL, the IC50 in test [1] (setting [11]) was more than 83300 nM.

In the case of EEKPRTLHDL, the IC50 in test [3] (B*4002) is 34000 nM; in test [4] (B*4403), 30000 nM; in [5] (B*4501) it was 419 nM; in test [6] (B*4402), 15200 nM; in test [7] (B*1801) it was more than 81600 nM; in [8] (B*4001), 36200 nM.

AENLWVTVE: the IC50 was 1360 nM in test [3]; 2570 nM in test [4]; 246 nM in [5]; 8910 nM in [6]; more than 258000 nM in test [7]; 3890 nM in test [8].

In [1] (setting [10]), ITEYRHYQY had an IC50 of 90 nM.

For ATELHPEYY, the IC50 amounted to 1730 nM in test [2] and 43 nM in test [1] (setting [10]).

On to AEIPKLAYF, for which the IC50 is 5.6 nM in test [3] (B*4002); 57 nM in [4] (B*4403); 608 nM in [5] (B*4501); 229 nM in test [6] (B*4402); 1640 nM in [7] (B*1801); 57 nM in test [8] (B*4001).

Regarding LDKGIKPY, the IC50 in test [3] (B*4002) was 468 nM; in test [4] (B*4403), 19300 nM; in test [5] (B*4501) it was 23600 nM; in [6] (B*4402), more than 43200 nM; in test [7] (B*1801), more than 100000 nM; in [8] (B*4001), 17900 nM.

In [1] (setting [10]), `CC[C@H](C)[C@H](NC(=O)[C@H](CO)NC(=O)[C@H](Cc1c[nH]cn1)NC(=O)[C@@H](NC(=O)[C@H](CO)NC(=O)[C@@H](N)CC(C)C)C(C)C)C(=O)N[C@@H](CCC(N)=O)C(=O)N[C@@H](CC(N)=O)C(=O)N[C@@H](CC(=O)O)C(=O)N[C@@H](Cc1ccc(O)cc1)C(=O)O` had an IC50 of 279 nM.

As for AENLWVTVY, the IC50 was 90 nM and 547 nM in [3] (B*4002); 43 nM and 284 nM in [4] (B*4403); 68 nM and 200 nM and 301 nM in test [5] (B*4501); 66 nM and 308 nM in test [6] (B*4402); 51 nM and 155 nM and 122 nM in [7] (B*1801); 1360 nM and 1580 nM in test [8] (B*4001).

Turning to NLALLYGEY, the IC50 in [2] (Binding affinity to A*3002 (expressed as an IC50)) was 102 nM; in test [1] (setting [10]), 275 nM.

For the compound AENKWVTVY, the IC50 in test [3] amounted to 534 nM; in [4], 540 nM; in [5] it was 297 nM; in test [6] it was 294 nM; in [7], 781 nM; in [8] it was 11300 nM.

For the compound `CC(C)C[C@H](NC(=O)[C@H](CC(=O)O)NC(=O)[C@H](CC(C)C)NC(=O)[C@@H](NC(=O)[C@H](Cc1ccc(O)cc1)NC(=O)[C@H](CCC(=O)O)NC(=O)[C@H](CCCCN)NC(=O)[C@H](CC(C)C)NC(=O)[C@@H](NC(=O)[C@@H]1CCCN1)[C@@H](C)O)C(C)C)C(=O)N[C@@H](Cc1ccc(O)cc1)C(=O)O`, the IC50 in test [9] (Binding affinity to A*2902 (expressed as an IC50)) stood at 805 nM; in test [1] (setting [10]), 426 nM.

For AENLWVTTY, the IC50 in test [3] was 191 nM; in test [4], 26 nM; in test [5] it was 48 nM; in test [6], 37 nM; in [7] it was 28 nM; in [8], 280 nM.

Regarding RERPDNYV, the IC50 in test [3] (read-out: B*4002) was 62 nM; in test [4] (read-out: B*4403), more than 34500 nM; in test [5] (read-out: B*4501) it was 34600 nM; in test [6] (read-out: B*4402), more than 67600 nM; in test [7] (read-out: B*1801), more than 73800 nM; in test [8] (read-out: B*4001) it was 71600 nM.

Take PENLWVTVY: the IC50 in test [3] is more than 155000 nM; in test [4] it was more than 425000 nM; in test [5], more than 49000 nM; in test [6] it was more than 167000 nM; in test [7], 190 nM; in test [8], more than 72700 nM.

As for NVDQQNIDMY, the IC50 in [1] (setting [11]) was 47 nM.
